Patent US20240190854A1, “PYRIMIDINE OR PYRIDINE DERIVATIVES USEFUL AS HCN2 MODULATORS” (King's College London, priority 2021, published 2024)
Counter-ions that a name gives are not always drawn.

How the values were obtained:
HCN2 = HCN2 (Homo sapiens (Human), UniProt Q9UL51); test: HCN2 current assay using PatchXpress 7000A; assay type: cell-based; settings: PatchXpress protocol; read-out: PX HCN2 IC50
Method: (§1) Example 126A, Using PatchXpress 7000A
(§2) Solutions for recording HCN currents were:
The membrane voltage was then stepped back to −30 mV for a further 8 seconds.
(§3) The peak inward current measured at the end of the pulse to −110 mV (HCN1 and HCN2) or −130 mV (HCN4) was measured and any leak current subtracted to calculate the HCN current. The HCN current amplitude was measured after each control or compound addition and normalized to the control amplitude (Control A).
(§4) All experiments were performed at room temperature (approximately 22° C.).
(§5) Each test compound concentration was applied to the cell for seven (7) minutes, at which point the next cumulative concentration was applied.

HCN4 = HCN4 (Homo sapiens (Human), UniProt Q9Y3Q4); test: HCN4 current assay using PatchXpress 7000A; assay type: cell-based; settings: PatchXpress protocol; read-out: PX HCN4 IC50
Method: as §1, §2, §3, §4, §5

hNav1.5 = hNav1.5 (Homo sapiens (Human), UniProt Q14524)
Chain of hNav1.5 (Q14524 whole entry): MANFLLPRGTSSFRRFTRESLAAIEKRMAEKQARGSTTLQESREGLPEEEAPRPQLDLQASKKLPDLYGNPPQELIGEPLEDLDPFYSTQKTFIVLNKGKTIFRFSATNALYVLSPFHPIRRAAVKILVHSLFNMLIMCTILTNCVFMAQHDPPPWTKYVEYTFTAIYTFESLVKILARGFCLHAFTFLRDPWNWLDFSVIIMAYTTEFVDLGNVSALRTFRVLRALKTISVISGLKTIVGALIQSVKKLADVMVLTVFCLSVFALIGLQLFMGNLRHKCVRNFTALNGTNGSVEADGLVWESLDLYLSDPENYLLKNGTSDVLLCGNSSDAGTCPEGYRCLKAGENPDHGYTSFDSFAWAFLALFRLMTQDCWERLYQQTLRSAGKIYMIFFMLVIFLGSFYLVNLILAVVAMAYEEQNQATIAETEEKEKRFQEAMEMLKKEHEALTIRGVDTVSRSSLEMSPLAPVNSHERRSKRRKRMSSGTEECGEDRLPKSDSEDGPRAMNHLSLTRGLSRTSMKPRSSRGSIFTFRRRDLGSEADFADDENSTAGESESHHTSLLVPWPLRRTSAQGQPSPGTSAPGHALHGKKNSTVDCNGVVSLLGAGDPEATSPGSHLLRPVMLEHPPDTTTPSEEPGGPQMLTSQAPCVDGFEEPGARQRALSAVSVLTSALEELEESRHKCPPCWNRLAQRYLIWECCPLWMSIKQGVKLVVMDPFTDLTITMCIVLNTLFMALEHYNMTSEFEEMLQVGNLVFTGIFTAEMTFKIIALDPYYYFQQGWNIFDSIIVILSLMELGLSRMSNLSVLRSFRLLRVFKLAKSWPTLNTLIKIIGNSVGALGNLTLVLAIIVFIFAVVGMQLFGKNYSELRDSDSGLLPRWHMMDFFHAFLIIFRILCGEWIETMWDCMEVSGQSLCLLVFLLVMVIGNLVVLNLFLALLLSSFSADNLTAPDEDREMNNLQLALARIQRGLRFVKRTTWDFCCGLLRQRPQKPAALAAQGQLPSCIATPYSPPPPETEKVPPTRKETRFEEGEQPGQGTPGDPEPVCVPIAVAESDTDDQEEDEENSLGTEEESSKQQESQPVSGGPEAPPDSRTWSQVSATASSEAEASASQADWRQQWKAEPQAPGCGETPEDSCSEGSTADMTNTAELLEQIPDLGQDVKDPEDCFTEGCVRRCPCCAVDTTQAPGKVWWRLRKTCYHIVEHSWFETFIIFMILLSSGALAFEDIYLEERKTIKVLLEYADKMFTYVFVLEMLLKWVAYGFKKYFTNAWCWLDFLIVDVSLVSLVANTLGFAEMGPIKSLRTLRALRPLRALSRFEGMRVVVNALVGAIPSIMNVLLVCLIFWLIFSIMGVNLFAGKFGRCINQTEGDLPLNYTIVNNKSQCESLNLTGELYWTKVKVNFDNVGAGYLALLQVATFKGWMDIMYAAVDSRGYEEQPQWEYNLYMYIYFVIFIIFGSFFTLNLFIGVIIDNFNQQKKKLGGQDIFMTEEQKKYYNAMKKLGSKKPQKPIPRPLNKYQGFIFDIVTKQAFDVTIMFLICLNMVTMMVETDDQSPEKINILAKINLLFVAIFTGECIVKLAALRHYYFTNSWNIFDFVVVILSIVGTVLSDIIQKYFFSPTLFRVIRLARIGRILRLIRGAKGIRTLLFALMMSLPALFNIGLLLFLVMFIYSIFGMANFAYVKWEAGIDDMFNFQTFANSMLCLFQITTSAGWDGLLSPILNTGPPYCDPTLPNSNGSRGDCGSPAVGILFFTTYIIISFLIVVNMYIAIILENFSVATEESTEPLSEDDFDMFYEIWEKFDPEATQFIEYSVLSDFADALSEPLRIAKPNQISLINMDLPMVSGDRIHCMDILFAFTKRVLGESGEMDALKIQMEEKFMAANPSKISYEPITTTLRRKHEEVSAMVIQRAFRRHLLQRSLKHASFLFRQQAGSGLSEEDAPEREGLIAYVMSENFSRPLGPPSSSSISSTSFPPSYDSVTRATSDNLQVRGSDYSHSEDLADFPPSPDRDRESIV

Chain of HCN2 (Q9UL51 whole entry): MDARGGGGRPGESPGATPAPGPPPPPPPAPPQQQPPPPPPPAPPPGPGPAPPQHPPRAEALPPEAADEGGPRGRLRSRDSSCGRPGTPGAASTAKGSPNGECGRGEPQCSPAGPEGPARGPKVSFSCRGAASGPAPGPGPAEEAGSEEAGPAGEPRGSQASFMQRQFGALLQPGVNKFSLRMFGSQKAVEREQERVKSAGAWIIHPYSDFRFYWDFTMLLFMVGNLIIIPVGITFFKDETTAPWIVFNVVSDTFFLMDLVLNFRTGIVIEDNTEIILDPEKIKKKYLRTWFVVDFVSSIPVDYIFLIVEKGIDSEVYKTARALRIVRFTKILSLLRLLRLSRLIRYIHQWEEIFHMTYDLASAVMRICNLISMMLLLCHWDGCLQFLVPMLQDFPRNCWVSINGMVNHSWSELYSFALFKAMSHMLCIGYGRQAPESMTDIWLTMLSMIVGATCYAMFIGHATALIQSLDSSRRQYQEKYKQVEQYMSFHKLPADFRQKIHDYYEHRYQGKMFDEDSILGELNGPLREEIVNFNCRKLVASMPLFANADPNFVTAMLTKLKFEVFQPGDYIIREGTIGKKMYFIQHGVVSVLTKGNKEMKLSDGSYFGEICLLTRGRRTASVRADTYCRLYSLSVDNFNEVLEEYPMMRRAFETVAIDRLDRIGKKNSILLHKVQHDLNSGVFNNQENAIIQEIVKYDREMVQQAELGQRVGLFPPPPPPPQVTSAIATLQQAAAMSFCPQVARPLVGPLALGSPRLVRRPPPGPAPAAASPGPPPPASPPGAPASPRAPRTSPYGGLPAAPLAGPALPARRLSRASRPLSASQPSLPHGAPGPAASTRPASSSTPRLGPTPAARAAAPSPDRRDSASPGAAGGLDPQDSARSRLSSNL
Chain of HCN4 (Q9Y3Q4 whole entry, species assumed): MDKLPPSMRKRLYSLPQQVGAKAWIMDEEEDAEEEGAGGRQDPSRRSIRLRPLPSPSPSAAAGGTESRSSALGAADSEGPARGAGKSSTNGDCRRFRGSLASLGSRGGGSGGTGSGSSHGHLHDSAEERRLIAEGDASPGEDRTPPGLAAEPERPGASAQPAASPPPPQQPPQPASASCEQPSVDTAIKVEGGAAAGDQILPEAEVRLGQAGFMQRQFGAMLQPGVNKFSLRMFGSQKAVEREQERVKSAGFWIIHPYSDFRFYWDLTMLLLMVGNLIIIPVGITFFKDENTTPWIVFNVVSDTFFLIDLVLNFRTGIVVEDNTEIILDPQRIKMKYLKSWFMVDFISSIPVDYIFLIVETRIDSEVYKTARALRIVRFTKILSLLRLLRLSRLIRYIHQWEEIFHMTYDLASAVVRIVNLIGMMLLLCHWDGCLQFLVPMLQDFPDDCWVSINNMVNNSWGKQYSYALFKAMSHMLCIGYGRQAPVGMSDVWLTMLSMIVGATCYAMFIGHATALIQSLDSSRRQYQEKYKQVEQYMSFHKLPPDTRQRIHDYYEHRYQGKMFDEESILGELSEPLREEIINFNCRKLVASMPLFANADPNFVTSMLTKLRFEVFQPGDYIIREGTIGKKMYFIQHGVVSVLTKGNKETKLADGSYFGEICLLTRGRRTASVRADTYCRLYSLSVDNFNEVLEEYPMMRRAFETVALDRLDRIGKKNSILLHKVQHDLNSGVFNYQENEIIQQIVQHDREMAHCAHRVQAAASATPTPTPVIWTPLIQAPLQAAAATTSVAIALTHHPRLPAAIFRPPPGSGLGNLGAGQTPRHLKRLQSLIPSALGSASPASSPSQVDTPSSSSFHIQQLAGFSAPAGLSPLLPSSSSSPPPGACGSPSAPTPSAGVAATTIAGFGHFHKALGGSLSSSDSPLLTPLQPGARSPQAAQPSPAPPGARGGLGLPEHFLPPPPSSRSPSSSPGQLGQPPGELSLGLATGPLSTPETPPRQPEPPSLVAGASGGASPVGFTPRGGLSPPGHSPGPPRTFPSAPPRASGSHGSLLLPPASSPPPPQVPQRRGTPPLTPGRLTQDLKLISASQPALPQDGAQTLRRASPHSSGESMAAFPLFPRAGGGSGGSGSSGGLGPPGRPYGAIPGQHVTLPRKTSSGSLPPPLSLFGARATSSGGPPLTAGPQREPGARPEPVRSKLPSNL

Row | IC50 (HCN2) [µM] | IC50 (HCN4) [µM] | SMILES | IC50 (hNav1.5) [µM]
1 | 1 | 2.1 | N[C@@H](Cc1cccc(N2CCOCC2)n1)c1ccccc1-c1noc2ccccc12 [Example 54, (S)-1-[2-(Benzo[d]isoxazol-3-yl)phenyl]-2-(6-morpholinopyridine-2-yl)ethane-1-amine hydrochloride] | –
2 | 2.7 | > 30 | N[C@@H](Cc1ccc(Br)cn1)c1ccccc1-c1noc2ccccc12 [Example 88, (S)-1-[2-(Benzo[d]isoxazol-3-yl)phenyl]-2-(5-bromopyridine-2-yl)ethan-1-amine hydrochloride] | –
3 | 8.5 | > 30 | N[C@@H](Cc1cccc(C(=O)N2CCOCC2)n1)c1ccccc1-c1noc2ccccc12 [Example 106, (S)-(6-{2-Amino-2-[2-(benzo[d]isoxazol-3-yl)phenyl]ethyl}pyridine-2-yl)(morpholino)methanone hydrochloride] | –
4 | 9.5 | 28.1 | CNC(=O)Nc1cccc(C[C@H](N)c2ccccc2-c2noc3ccccc23)n1 [Example 122, (S)-1-(6-{2-Amino-2-[2-(benzo[d]isoxazol-3-yl)phenyl]ethyl}pyridine-2-yl)-3-methylurea hydrochloride] | –
5 | 2 | 13.2 | N[C@@H](Cc1cccc(CO)n1)c1ccccc1-c1noc2ccccc12 [Example 98, (S)-1-[2-(Benzo[d]isoxazol-3-yl)phenyl]-2-(6-hydroxymethylpyridine-2-yl)ethan-1-amine hydrochloride] | –
6 | 5.6 | 4.9 | N[C@@H](Cc1cccc(N2CC[C@@H](O)C2)n1)c1ccccc1-c1noc2ccccc12 [Example 50, (R)-1-(6-{(S)-2-Amino-2-[2-(benzo[d]isoxazol-3-yl)phenyl]ethyl}pyridine-2-yl)pyrrolidin-3-ol hydrochloride] | –
7 | 5.9 | > 30 | CS(=O)(=O)Nc1cccc(C[C@H](N)c2ccccc2-c2noc3ccccc23)n1 [Example 123, (S)—N-(6-{2-Amino-2-[2-(benzo[d]isoxazol-3-yl)phenyl]ethyl}pyridine-2-yl)methanesulfonamide hydrochloride] | –
8 | 0.6 | 2.4 | Cc1ccc(Br)nc1C[C@H](N)c1ccccc1-c1noc2ccccc12 [Example 57, (S)-1-[2-(Benzo[d]isoxazol-3-yl)phenyl]-2-(6-bromo-3-methylpyridin-2-yl)ethan-1-amine hydrochloride] | –
9 | 1.4 | 3.2 | N[C@@H](Cc1cccc(C(=O)NCC2CC2)n1)c1ccccc1-c1noc2ccccc12 [Example 107, (S)-6-{2-Amino-2-[2-(benzo[d]isoxazol-3-yl)phenyl]ethyl}-N-(cyclopropylmethylpyridine-2-carboxamide hydrochloride] | –
10 | 3.5 | 5.1 | COCCNC(=O)c1cccc(C[C@H](N)c2ccccc2-c2noc3ccccc23)n1 [Example 108, (S)-6-{2-[Amino-2-(benzo[d]isoxazol-3-yl)phenyl]ethyl}-N-(2-methoxyethyl)pyridine-2-carboxamide hydrochloride] | –

Second part, the compound before the results:

Row | SMILES | IC50 (HCN2) [µM] | IC50 (HCN4) [µM] | IC50 (hNav1.5) [µM]
11 | CC(c1ccccn1)C(N)c1ccccc1-c1noc2ccccc12 (single isomer, unassigned; diastereomer 2) [Example 2, 1-[2-(Benzo[d]isoxazol-3-yl)phenyl]-2-(pyridin-2-yl)propan-1-amine hydrochloride (diastereomer 2)] | 0.96 | > 30 | –
12 | Cc1ccc(C)c(C[C@H](N)c2ccccc2-c2noc3ccccc23)n1 [Example 59, (S)-1-[2-(benzo[d]isoxazol-3-yl)phenyl]-2(6-vinylpyridin-2-yl)ehtan-1-amine] | 0.9 | 6.8 | –
13 | Cc1cccc(C[C@H](N)c2ccccc2-c2nn(C(C)C)c3ccccc23)n1 [Example 66, (S)-1-[2-(1-Isopropyl-1H-indazole-3-yl)phenyl]-2-(6-methylpyridine-2-yl)ethan-1-amine hydrochloride] | 0.9 | 6.8 | –
14 | CC(C)n1nc(-c2ccccc2[C@@H](N)Cc2cccc(Br)n2)c2ccccc21 [Example 64, (S)-2-(6-Bromopyridine-2-yl)-1-[2-(1-isopropyl-1H-indazole-3-yl)phenyl]ethan-1-amine hydrochloride] | 1.3 | 6.4 | –
15 | C#Cc1ccc2c(-c3ccccc3[C@@H](N)Cc3ccccn3)noc2c1 [Example 31, (S)-1-[2-(6-Ethynylbenzo[d]isoxazol-3-yl)phenyl]-2-(pyridine-2-yl)ethan-1-amine hydrochloride] | 1.6 | 6.7 | –
16 | N#Cc1cccc(C[C@H](N)c2c(F)cccc2-c2noc3ccccc23)n1 [Example 110, (S)-6-{2-Amino-2-[2-(benzo[d]isoxazol-3-yl)-6-fluorophenyl]ethyl}-2-cyanopyridine hydrochloride] | 2.6 | 15.1 | > 33
17 | N[C@@H](Cc1ccccn1)c1c(Br)cccc1-c1noc2ccccc12 [Example 87, (S)-1-[2-(Benzo[d]isoxazol-3-yl)-6-bromophenyl]-2-(pyridine-2-yl)ethan-1-amine hydrochloride] | 1.7 | 18.8 | –
18 | Cc1ccc(C#N)nc1C[C@H](N)c1ccccc1-c1noc2ccccc12 [Example 58, (S)-1-[2-(Benzo[d]isoxazol-3-yl)phenyl]-2-(6-cyano-3-methylpyridin-2-yl)ethan-1-amine] | 0.5 | 7.2 | –
19 | Cc1cccc(C[C@H](N)c2ccccc2-c2noc3cc(C#N)ccc23)n1 [Example 96, (S)-1-[2-(6-Cyanobenzo[d]isoxazol-3-yl)phenyl]-2-(6-methylpyridine-2-yl)ethan-1-amine] | 2.9 | > 30 | –
20 | CC(C)n1nc(-c2ccccc2[C@@H](N)Cc2ccccn2)c2ccccc21 [Example 65, (S)-1-[2-(1-isopropyl-1H-indazole-3-yl)phenyl]-2-(pyridine-2-yl)ethan-1-amine hydrochloride] | 1.1 | 5.1 | –
21 | CNC(=O)c1cccc(C[C@H](N)c2ccccc2-c2noc3ccccc23)n1 [Example 105, (S)-6-{2-Amino-2-[2-(benzo[d]isoxazol-3-yl)phenyl]ethyl}-N-methylpyridine-2-carboxamide hydrochloride] | 4.2 | 6.2 | –
22 | N[C@@H](Cc1ccccn1)c1cc(Br)ccc1-c1noc2ccccc12 [Example 83, (S)-1-[2-(benzo[d]isoxazol-3-yl)-5-bromophenyl]-2-(pyridine-2-yl)ethan-1-amine] | 1.8 | > 30 | –
23 | N#Cc1ccc(C[C@H](N)c2ccccc2-c2noc3cc(Br)ccc23)nc1 [Example 81, (S)-1-[2-(6-Bromobenzo[d]isoxazol-3-yl)phenyl]-2-(5-cyanopyridine-2-yl)ethan-1-amine] | 10.8 | > 30 | –
